Data set [1] can be described thus: In vitro metabolic stability, hepatocytes (rat). The class given is in vitro ADME. The following applies: rat hepatocytes 1×10^6 cells/mL, 2 μM compound; read-out: Hepatocyte Stability T1/2 Rat (converted). Here is the method:
(§1) For hepatocyte stability incubations, cells were obtained from BioreclamationIVT (Baltimore, Md.), thawed according to the manufacturer's directions, and resuspended to a final concentration of 1×10^6 cells/mL in Krebs-Henseleit buffer prewarmed to 37° C. The total cell count and the proportion of viable cells were determined by Trypan Blue dye exclusion using a hemocytometer. The final concentration of test compounds and positive controls was 2 μM. Incubations were carried out in duplicate wells of a 24-well plate out with gentle shaking at 37° C. under a humid atmosphere of 95% air/5% CO2 (v/v). Aliquots (50 μL) were removed after 0, 1, 3, and 6 hours and added to 100 μL quenching solution. Samples were then processed and analyzed in a manner similar to the microsomal stability samples.
(§2) Quantification of test compounds and positive controls were performed using analyte/internal standard peak area ratios (PAR) measured on a Q-Exactive mass spectrometer (Thermo Scientific, San Jose, Calif.) coupled to an Aria Transcend LX-4 multiplex UHPLC system (Thermo Scientific, San Jose, Calif.). […] Half-lives of compounds in the incubations were calculated from extracted data using GMSU/QuickCalc (Gubbs, Inc.) and data are summarized in the following Table 3.

Data set [2] is described as follows: In vitro metabolic stability, hepatocytes (human). Format: in vitro ADME. Conditions: human hepatocytes 1×10^6 cells/mL, 2 μM compound; read-out: Hepatocyte Stability T1/2 Human (converted). As for the experimental part:
as §1, §2

As for `COCCCOc1cc2c(cc1Cl)-c1cc(=O)c(C(=O)O)cn1N(C(C)(C)C)C2` [Example 2, 6-(tert-Butyl)-10-chloro-9-(3-methoxypropoxy)-2-oxo-6,7-dihydro-2H-pyrido[2,1-a]-phthalazine-3-carboxylic acid], the half-life at 2 μM in data set [1] is over 39.5 h; in data set [2] it was 26.6 h.

As for `COCCCOc1cc2c(cc1Cl)-c1cc(=O)c(C(=O)O)cn1[C@H](C1(C)CC1)C2` [Comparative Example 1], the half-life at 2 μM in data set [1] is 7 h; in data set [2] it was 8.9 h.

For the origin of these results see patent US10100052B2, “Compounds for the treatment of hepatitis B virus infection” (Gilead Sciences, Inc., priority 2016, dated 2018).
